The results in this text go back to ChEMBL document CHEMBL5126496, “A novel compound active against SARS-CoV-2 targeting uridylate-specific endoribonuclease (NendoU/NSP15): in silico and in vitro investigations” (RSC Med Chem, 2021).

In one data set the test system is Vero. The data set can be described thus: Cytotoxicity against African green monkey Vero cells at 50 uM. The class given is toxicity, cell-based. The settings on record: chlorocebus sabaeus.
Data set [1] concerns SARS-CoV-2. The experiment in a line: Antiviral activity against SARS-CoV-2 MT020880 infected in African green monkey Vero cells assessed as inhibition of viral entry preincubated for 1 hr at 10 uM. The class given is functional.
Data set [2] has as its system SARS-CoV-2. The data set can be described thus: Antiviral activity against SARS-CoV-2 MT020880 infected in African green monkey Vero cells measured after 48 hrs by spread assay. Format: functional, organism-based, Severe acute respiratory syndrome coronavirus 2.
For data set [3], the system named is SARS-CoV-2. The data set can be described thus: Antiviral activity against SARS-CoV-2 MT020880 infected in African green monkey Vero cells assessed as inhibition of viral entry preincubated for 1 hr. The class given is functional, organism-based, Severe acute respiratory syndrome coronavirus 2.
The mark [4] stands for this setting: Severe acute respiratory syndrome coronavirus 2, MT020880, Vero.

By inhibition is commonly meant the drop in the measured response relative to a control, in per cent. For orientation: IC50 means the concentration needed to halve the response being measured. Take `CC(C)(C)c1ccc(CN2CCN(C[C@H](O)[C@@H](N)Cc3ccccc3)CC2)cc1`: the Activity result in the data set on Vero is on record as “Non-Toxic”. For the same compound, in the data set with SARS-CoV-2 [1] (setting [4]), the inhibition at 10 µM is 90%. For the same compound, the half-inhibitory concentration (IC50) with SARS-CoV-2 [2] (Severe acute respiratory syndrome coronavirus 2, MT020880, Vero, 48 h) came to 8.46 µM; in the data set on SARS-CoV-2 [3] (setting [4]) it was 7.28 µM.
Consider IVERMECTIN [listing 1 of 2 here], for which the Activity result in the data set with Vero is reported as “Toxic”. Also, the IC50 came to 5.53 µM with SARS-CoV-2 [2] (vero) and 4.97 µM with SARS-CoV-2 [3] (vero).
Regarding IVERMECTIN [listing 2 of 2 here], the inhibition in the data set with SARS-CoV-2 [1] (Severe acute respiratory syndrome coronavirus 2) was determined as 90%.
